Assay results published in patent US6410792B1, “Amide derivatives and methods for using the same as selective neuropeptide Y receptor antagonists” (Bayer Corporation, priority 1997, dated 2002).
Where a name gives a salt, the structure may show the parent alone. Read-outs that look alike come from different tables or passages of the source.

Columns and labels:
[1] = molecular target: T1, Human NPY1 receptor (Homo sapiens, UniProt P25929); experiment: Human NPY1 receptor binding assay ([125I]PYY, SK-N-MC cells); conditions: [125I]PYY, SK-N-MC cells; read-out: hNPYI IC50
T1 construct: host or cells: SK-N-MC cells
T1 sequence (P25929 1-384): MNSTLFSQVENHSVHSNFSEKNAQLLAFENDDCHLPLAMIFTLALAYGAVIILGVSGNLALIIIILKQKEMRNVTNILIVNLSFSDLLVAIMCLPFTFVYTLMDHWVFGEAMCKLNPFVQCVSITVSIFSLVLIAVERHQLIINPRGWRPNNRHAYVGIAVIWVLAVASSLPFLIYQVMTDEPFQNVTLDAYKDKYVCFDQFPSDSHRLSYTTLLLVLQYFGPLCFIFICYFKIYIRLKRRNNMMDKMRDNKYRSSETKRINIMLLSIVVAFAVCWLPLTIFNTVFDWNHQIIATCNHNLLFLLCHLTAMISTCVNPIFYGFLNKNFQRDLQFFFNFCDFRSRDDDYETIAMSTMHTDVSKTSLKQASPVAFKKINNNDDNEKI
Protocol: A. Human NPY1 Receptor Binding Assay
This is a modification of Gordon et al., (J. Neurochem. 55:506-513, 1990). SK-N-MC cell (ATCC, Rockville, Md.) were plated in 24-well plates. Once confluent, cells were rinsed with Dulbecco's phosphate buffered saline (DPBS). Cells were then preincubated in binding buffer containing serum-free DMEM, 25 mM HEPES (pH 7.3), 0.5% bovine serum albumin (BSA), 0.1% bacitracin and 0.1 mM phenylmethylsulfonylfluoride for 30 minutes at room temperature. Drug dilution and [125I]PYY (˜50 pM: NEN-DuPont) were added to the wells, and the cells were incubated for an additional 3 hours at room temperature, followed by rinsing with ice-cold DPBS. Nonspecific binding was defined with 1 μM NPY. After lysing the cells with 1% Triton X-100, the amount of radioactivity in the lysates was quantitated with a gamma counter.

[2] = molecular target: T2, Y2 receptor (Homo sapiens, UniProt P49146); experiment: Y2 receptor binding assay ([125I]PYY, membrane protein); conditions: [125I]PYY, membrane protein; read-out: hNPY2 IC50
T2 sequence (P49146 1-381): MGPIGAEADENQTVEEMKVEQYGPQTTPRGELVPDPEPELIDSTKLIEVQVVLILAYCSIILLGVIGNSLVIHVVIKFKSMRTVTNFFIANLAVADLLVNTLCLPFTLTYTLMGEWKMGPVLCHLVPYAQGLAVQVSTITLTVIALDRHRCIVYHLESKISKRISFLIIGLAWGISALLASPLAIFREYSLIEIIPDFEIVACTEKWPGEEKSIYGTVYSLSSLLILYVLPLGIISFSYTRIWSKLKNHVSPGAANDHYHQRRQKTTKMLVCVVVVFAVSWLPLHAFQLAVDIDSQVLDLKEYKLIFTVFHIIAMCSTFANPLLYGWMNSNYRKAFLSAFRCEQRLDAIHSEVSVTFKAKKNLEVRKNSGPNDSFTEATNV
Procedure, shortened: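 Filtration binding with membrane protein and drug dilution, 2 h at room temperature with mixing, radioactivity counted by gamma or scintillation. Y2: 25 pM [125I]PYY in Krebs-Ringer bicarbonate pH 7.4 with 0.01% BSA, nonspecific by 1 μM NPY. Y4/PP1: 50 pM [125I]hPP in HEPES-buffered saline pH 7.4 with protease inhibitors and 0.3% BSA, nonspecific by 1 μM hPP.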

[3] = molecular target: T3, Human NPY5 receptor (Homo sapiens, UniProt Q15761); experiment: Human NPY5 receptor binding assay ([125I]PYY, membrane protein)
T3 sequence (Q15761 1-445): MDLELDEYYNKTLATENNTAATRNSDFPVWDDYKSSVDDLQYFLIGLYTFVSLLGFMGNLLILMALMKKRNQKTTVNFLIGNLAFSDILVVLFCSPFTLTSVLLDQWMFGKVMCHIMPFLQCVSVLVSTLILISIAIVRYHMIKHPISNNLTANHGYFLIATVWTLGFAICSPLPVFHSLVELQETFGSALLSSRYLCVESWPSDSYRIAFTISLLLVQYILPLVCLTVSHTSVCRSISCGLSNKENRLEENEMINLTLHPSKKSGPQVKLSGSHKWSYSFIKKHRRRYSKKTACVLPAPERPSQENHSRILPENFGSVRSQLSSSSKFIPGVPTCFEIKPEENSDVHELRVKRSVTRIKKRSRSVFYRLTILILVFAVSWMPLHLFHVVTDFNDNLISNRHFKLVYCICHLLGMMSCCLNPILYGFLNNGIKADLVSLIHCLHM
Procedure, shortened: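 First, membrane protein, drug dilution and 75-100 pM [125I]PYY were combined in pH 7.4 Tris saline buffer containing divalent cations and 0.1% BSA. Next, samples were mixed 2 hours at room temperature. Finally, samples were filtered, washed ice-cold and counted; 1 μM PYY gave nonspecific binding.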

[4] = molecular target: T4, Rat NPY5 receptor (Rattus norvegicus, UniProt Q63634); experiment: Rat NPY5 receptor binding assay ([125I]PYY, membrane protein)
T4 sequence (Q63634 1-445): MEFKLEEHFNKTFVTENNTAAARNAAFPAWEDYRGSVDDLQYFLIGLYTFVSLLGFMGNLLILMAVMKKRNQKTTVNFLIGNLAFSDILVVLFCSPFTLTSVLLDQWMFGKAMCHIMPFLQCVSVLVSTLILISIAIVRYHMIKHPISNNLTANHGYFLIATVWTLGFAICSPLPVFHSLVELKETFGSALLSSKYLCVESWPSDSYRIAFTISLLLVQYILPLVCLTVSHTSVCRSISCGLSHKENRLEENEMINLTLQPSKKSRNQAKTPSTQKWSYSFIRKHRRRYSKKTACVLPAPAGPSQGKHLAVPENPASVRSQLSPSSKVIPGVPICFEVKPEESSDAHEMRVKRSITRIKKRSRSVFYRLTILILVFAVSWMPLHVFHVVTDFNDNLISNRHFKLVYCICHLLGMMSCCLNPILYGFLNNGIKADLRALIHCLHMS
Protocol: C. Human and Rat NPY5 Receptor Binding Assays
Binding assays are performed on GF/C Millipore 96well plates pretreated with 0.02% polyethylenimine. The binding buffer is 25 mM Tris, 120 mM NaCl, 5 mM KCl, 1.2 mM KH2PO4, 2.5 mM CaCl2, 1.2 mM MgSO4, 0.1% BSA and 0.5 mg/ml bacitracin, pH 7.4. Samples consist of membrane protein, 75-100 pM [125I]PYY (porcine, NEN-DuPont) and drug dilution. Nonspecific binding is defined by 1 μM PYY. After a 2 hour incubation at room temperature with constant mixing, the samples are aspirated on a vacuum manifold, and rinsed with ice-cold binding buffer. The amount of radioactivity in each well is quantitated with either gamma counting or liquid scintillation.

[5] = molecular target: human Y4/PP1 receptor (Homo sapiens, UniProt P50391); experiment: Human Y4/PP1 receptor binding assay ([125I]human PP, membrane protein); conditions: [125I]human PP, membrane protein; read-out: hNPY4 IC50
Chain of human Y4/PP1 receptor (P50391 whole entry): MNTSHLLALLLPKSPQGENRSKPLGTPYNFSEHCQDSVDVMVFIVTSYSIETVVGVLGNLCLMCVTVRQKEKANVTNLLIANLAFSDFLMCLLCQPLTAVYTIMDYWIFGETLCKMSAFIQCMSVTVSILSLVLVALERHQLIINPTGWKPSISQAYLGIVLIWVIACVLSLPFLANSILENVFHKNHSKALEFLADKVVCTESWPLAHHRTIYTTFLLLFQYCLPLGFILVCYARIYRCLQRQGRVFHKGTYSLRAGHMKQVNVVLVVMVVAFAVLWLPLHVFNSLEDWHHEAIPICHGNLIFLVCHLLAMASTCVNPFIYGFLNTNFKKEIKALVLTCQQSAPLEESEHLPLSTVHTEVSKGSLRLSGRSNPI
Protocol: B. Human Y2 and Y4/PP1 Receptor Binding Assays
Binding assays were performed on GF/C Millipore 96-well plates pretreated with 0.02% polyethylenimine. The binding buffer for rat Y2 binding is Krebs-Ringer bicarbonate (pH 7.4) containing 0.01% BSA and 0.005% bacitracin. Samples consist of membrane protein, 25 pM [1251]PYY and drug dilution. Nonspecific binding is defined by 1 μM NPY. The binding buffer for human Y4/PP1 binding consists of 137 mM NaCl, 5.4 mM KCl, 0.44 mM KH2PO4, 1.26 mM CaCl2, 0.81 mM MgSO4, 20 mM HEPES, 1 mM dithiothreitol, 0.1% bacitracin, 100 mg/l streptomycin sulfate, 1 mg/l aprotinin, 10 mg/ml soybean trypsin inhibitor and 0.3% BSA, pH 7.4. Samples consist of membrane protein, 50 pM human [1251]human PP (hPP: NEN DuPont, Boston, Mass.) and drug dilution. 1 μM hPP is used to define nonspecific binding.
After a 2 hour incubation at room temperature with constant mixing, the samples are aspirated on a vacuum manifold, and rinsed with ice-cold binding buffer. The amount of radioactivity in each well is quantitated with either gamma counting or liquid scintillation.

[6] = [125I]PYY, read-out: hNPY5 IC50
[7] = [125I]PYY, read-out: rNPY5 IC50

Compound: O=C(CN1CCC(n2c(=O)[nH]c3ccccc32)CC1)NCc1ccc(F)cc1F [Compound 332, N-(2,4-Difluoro-benzyl)-2-[4-2(oxo-2,3-dihydro-benzoimidazol-1-yl)-piperidin-1-yl]-acetamide, reference compound]
- IC50 [1]: > 5000 nM
- IC50 [2]: > 5000 nM
- IC50 [3, 6]: 610 nM
- IC50 [4, 7]: 530 nM

Compound: O=C(CN1CCC(n2c(=O)[nH]c3ccccc32)CC1)Nc1ccc2cn[nH]c2c1 [Compound 344, N-(1H-Indazol-6-yl)-2-[4-(2-oxo-2,3-dihydro-benzoimidazol-1-yl)-piperidin-1-yl]-acetamide, reference compound]
- IC50 [1]: > 5000 nM
- IC50 [2]: > 5000 nM
- IC50 [5]: > 5000 nM
- IC50 [3, 6]: 2700 nM
- IC50 [4, 7]: 1700 nM

Compound: O=C(Nc1ccc(C2CCCCC2)cc1)C(c1ccccc1)N1CCC(n2c(=O)[nH]c3ccccc32)CC1 (stereo not shown) [Compound 313, N-(4-Cyclohexyl-phenyl)-2-[4-(2-oxo-2,3-dihydro-benzoimidazol-1-yl)-piperidin-1-yl]-2-phenyl-acetamide]
- IC50 [1]: > 5000 nM
- IC50 [2]: > 5000 nM
- IC50 [5]: > 5000 nM
- IC50 ([3]; hNPY5 IC50, [125I]PYY): 35 nM
- IC50 ([4]; rNPY5 IC50, [125I]PYY): 20 nM

Compound: O=C(CN1CCC(n2c(=O)[nH]c3ccccc32)CC1)Nc1cccc(-c2ccccc2)c1 [Compound 323, N-Biphenyl-3-yl-2-[4-(2-oxo-2,3-dihydro-benzoimidazol-1-yl)-piperidin-1 yl]-acetamide; hydrochloride]
- IC50 [1]: > 5000 nM
- IC50 [5]: > 5000 nM
- IC50 [3, 6]: 26 nM
- IC50 [4, 7]: 26 nM

Compound: O=C(CN1CCC(n2c(=O)[nH]c3ccccc32)CC1)Nc1ccc(Cl)cc1 [Compound 358, N-(4-Chloro-phenyl)-2-[4-(2-oxo-2,3-dihydro-benzoimidazol-1-yl)-piperidin-1-yl]-acetamide, reference compound]
- IC50 [1]: > 5000 nM
- IC50 [2]: > 5000 nM
- IC50 [5]: > 5000 nM
- IC50 [3, 6]: 730 nM
- IC50 [4, 7]: 443 nM

Compound: Cl.O=C(CN1CCC(n2c(=O)[nH]c3ccccc32)CC1)Nc1ccc(C(=O)C(=O)c2ccccc2)cc1 [Compound 265, 2-[4-(2-Oxo-2,3-dihydro-benzoimidazol-1-yl]-N-[4-(oxo-phenyl-acetyl)-phenyl]-acetamide; hydrochloride]
- IC50 [1]: > 5000 nM
- IC50 [2]: > 5000 nM
- IC50 [5]: > 5000 nM
- IC50 [3, 6]: 5 nM
- IC50 [4, 7]: 5 nM

Compound: O=C(CN1CCC(n2c(=O)[nH]c3ccccc32)CC1)Nc1ccc(Nc2ccccc2)cc1 [Compound 337, 2-[4-(2-Oxo-2,3-dihydro-benzoimidazol-1-yl)-piperidin-1-yl]-N-(4-phenylamino-phenyl)-acetamide, reference compound]
- IC50 [1]: > 5000 nM
- IC50 [5]: > 5000 nM
- IC50 [3, 6]: 96 nM
- IC50 [4, 7]: 108 nM

Compound: O=C(CN1CCC(n2c(=O)[nH]c3ccccc32)CC1)Nc1ccc(-c2cnco2)cc1 [Compound 267, N-(4-Oxazol-5-yl-phenyl)-2-[4-(2-oxo-2,3-dihydro-benzoimidazol-1-yl)-piperidin-1-yl]-acetamide; hydrate]
- IC50 [1]: > 5000 nM
- IC50 [2]: > 5000 nM
- IC50 [5]: > 5000 nM
- IC50 [3, 6]: 150 nM
- IC50 [4, 7]: 150 nM

Compound: N-(2-Amino-4-propylsulfnyl-phenyl)-2-[4-(2-oxo-2,3-dihydro-benzoimidazol-1-yl)-pipendin-1-yl]-acetamide; compound with GENERIC INORGANIC NEUTRAL COMPONENT [Compound 339, reference compound]
- IC50 [1]: > 5000 nM
- IC50 [2]: > 5000 nM
- IC50 [5]: > 5000 nM
- IC50 [3, 6]: 34 nM
- IC50 [4, 7]: 31 nM

Compound: CC(C(=O)Nc1ccc(-c2ccccc2)cc1)N1CCC(n2c(=O)[nH]c3ccccc32)CC1 (stereo not shown) [Compound 329, N-Biphenyl-4-yl-2-[4-(2-oxo-2,3-dihydro-benzoimidazol-1-yl)-piperidin-1-yl]-propionamide; hydrochloride]
- IC50 [1]: > 5000 nM
- IC50 [2]: > 5000 nM
- IC50 [5]: > 5000 nM
- IC50 [3, 6]: 20 nM
- IC50 [4, 7]: 16 nM

Compound: O=C(CN1CCOCC1)Nc1ccc(C2CCCCC2)cc1 [Compound 362, N-(4-Cyclohexyl-phenyl)-2-morpholin-4-yl-acetamide, reference compound]
- IC50 [1]: > 5000 nM
- IC50 [5]: > 5000 nM
- IC50 [3, 6]: 200 nM
- IC50 [4, 7]: 115 nM

Compound: O=C(CN1CCC(n2c(=O)[nH]c3ccccc32)CC1)Nc1cccc2ccc(O)cc12 [Compound 340, reference compound]
- IC50 [1]: > 5000 nM
- IC50 [2]: > 5000 nM
- IC50 [5]: > 5000 nM
- IC50 [3, 6]: 227 nM
